# Tested on: barnyardgrass (Echinochloa crus-galli)
# Assay: Test B flooded paddy test, barnyardgrass
# Assay type: in vivo
# Conditions: 250 g ai/ha, Flood; visual rating after 13 to 15 days; scale 0 to 100, 0 is no effect, 100 is complete control
# Outline: (§1)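 2-leaf plants; flood to 3 cm, dose into water, hold depth; greenhouse 13–15 d; visual score 0–100 vs controls; dash = not tested.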
row,Structure (SMILES),"Plant response rating, Barnyardgrass"
1,FC(F)=C(F)CCOc1c(Br)cccc1Oc1ncc(Cl)cn1 [Compound 38],0

# Tested on: barnyardgrass (Echinochloa crus-galli)
# Assay: Test A preemergence, barnyardgrass
# Assay type: in vivo
# Conditions: Preemergence, 31 g ai/ha; 0 to 100 scale (0 no effect, 100 complete control)
# Outline: (§2)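 Planted seeds in loam soil mixed with sand; sprayed soil directly (pre). Grew seedlings to one- to two-leaf stage, 2–10 cm; sprayed foliage (post). Held in greenhouse ~10 days. Rated injury visually vs untreated controls, 0–100.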
row,Structure (SMILES),"Plant response rating, Barnyardgrass"
1,FC(F)=C(F)CCOc1c(Br)cccc1Oc1ncc(Cl)cn1 [Compound 38],10

# Same assay, conditions: Preemergence, 125 g ai/ha; 0 to 100 scale (0 no effect, 100 complete control)
row,Structure (SMILES),"Plant response rating, Barnyardgrass"
1,FC(F)=C(F)CCOc1c(Br)cccc1Oc1ncc(Cl)cn1 [Compound 38],70

# Tested on: foxtail, giant (giant foxtail, Setaria faberii)
# Assay: Test A postemergence, giant foxtail
# Assay type: in vivo
# Conditions: 31 g ai/ha, postemergence; 0 to 100 scale, 0 is no effect, 100 is complete control; approximately 10 days
# Outline: as §2
row,Structure (SMILES),"Plant response rating, Foxtail, Giant"
1,FC(F)=C(F)CCOc1c(Br)cccc1Oc1ncc(Cl)cn1 [Compound 38],10

# Same assay, conditions: 125 g ai/ha, postemergence; 0 to 100 scale, 0 is no effect, 100 is complete control; approximately 10 days
row,Structure (SMILES),"Plant response rating, Foxtail, Giant"
1,FC(F)=C(F)CCOc1c(Br)cccc1Oc1ncc(Cl)cn1 [Compound 38],40

# Tested on: ryegrass, Italian (Italian ryegrass, Lolium multiflorum)
# Assay: Test A preemergence, Italian ryegrass
# Assay type: in vivo
# Conditions: Preemergence, 31 g ai/ha; 0 to 100 scale (0 no effect, 100 complete control)
# Outline: as §2
row,Structure (SMILES),"Plant response rating, Ryegrass, Italian"
1,FC(F)=C(F)CCOc1c(Br)cccc1Oc1ncc(Cl)cn1 [Compound 38],0

# Same assay, conditions: Preemergence, 125 g ai/ha; 0 to 100 scale (0 no effect, 100 complete control)
row,Structure (SMILES),"Plant response rating, Ryegrass, Italian"
1,FC(F)=C(F)CCOc1c(Br)cccc1Oc1ncc(Cl)cn1 [Compound 38],10

# Tested on: pigweed (Amaranthus retroflexus)
# Assay: Test A postemergence, pigweed
# Assay type: in vivo
# Conditions: 31 g ai/ha, postemergence; 0 to 100 scale, 0 is no effect, 100 is complete control; approximately 10 days
# Outline: as §2
row,Structure (SMILES),"Plant response rating, Pigweed"
1,FC(F)=C(F)CCOc1c(Br)cccc1Oc1ncc(Cl)cn1 [Compound 38],40

# Same assay, conditions: 125 g ai/ha, postemergence; 0 to 100 scale, 0 is no effect, 100 is complete control; approximately 10 days
row,Structure (SMILES),"Plant response rating, Pigweed"
1,FC(F)=C(F)CCOc1c(Br)cccc1Oc1ncc(Cl)cn1 [Compound 38],80

# Tested on: ragweed (common ragweed, Ambrosia elatior)
# Assay: Test A preemergence, ragweed
# Assay type: in vivo
# Conditions: Preemergence, 31 g ai/ha; 0 to 100 scale (0 no effect, 100 complete control)
# Outline: as §2
row,Structure (SMILES),"Plant response rating, Ragweed"
1,FC(F)=C(F)CCOc1c(Br)cccc1Oc1ncc(Cl)cn1 [Compound 38],0

# Same assay, conditions: Preemergence, 125 g ai/ha; 0 to 100 scale (0 no effect, 100 complete control)
row,Structure (SMILES),"Plant response rating, Ragweed"
1,FC(F)=C(F)CCOc1c(Br)cccc1Oc1ncc(Cl)cn1 [Compound 38],0

# Tested on: ryegrass, Italian (Italian ryegrass, Lolium multiflorum)
# Assay: Test A postemergence, Italian ryegrass
# Assay type: in vivo
# Conditions: 31 g ai/ha, postemergence; 0 to 100 scale, 0 is no effect, 100 is complete control; approximately 10 days
# Outline: as §2
row,Structure (SMILES),"Plant response rating, Ryegrass, Italian"
1,FC(F)=C(F)CCOc1c(Br)cccc1Oc1ncc(Cl)cn1 [Compound 38],0

# Same assay, conditions: 125 g ai/ha, postemergence; 0 to 100 scale, 0 is no effect, 100 is complete control; approximately 10 days
row,Structure (SMILES),"Plant response rating, Ryegrass, Italian"
1,FC(F)=C(F)CCOc1c(Br)cccc1Oc1ncc(Cl)cn1 [Compound 38],10

# Tested on: blackgrass (Alopecurus myosuroides)
# Assay: Test A postemergence, blackgrass
# Assay type: in vivo
# Conditions: 31 g ai/ha, postemergence; 0 to 100 scale, 0 is no effect, 100 is complete control; approximately 10 days
# Outline: as §2
row,Structure (SMILES),"Plant response rating, Blackgrass"
1,FC(F)=C(F)CCOc1c(Br)cccc1Oc1ncc(Cl)cn1 [Compound 38],0

# Same assay, conditions: 125 g ai/ha, postemergence; 0 to 100 scale, 0 is no effect, 100 is complete control; approximately 10 days
row,Structure (SMILES),"Plant response rating, Blackgrass"
1,FC(F)=C(F)CCOc1c(Br)cccc1Oc1ncc(Cl)cn1 [Compound 38],10

# Tested on: kochia (Kochia scoparia)
# Assay: Test A preemergence, kochia
# Assay type: in vivo
# Conditions: Preemergence, 31 g ai/ha; 0 to 100 scale (0 no effect, 100 complete control)
# Outline: as §2
row,Structure (SMILES),"Plant response rating, Kochia"
1,FC(F)=C(F)CCOc1c(Br)cccc1Oc1ncc(Cl)cn1 [Compound 38],0

# Same assay, conditions: Preemergence, 125 g ai/ha; 0 to 100 scale (0 no effect, 100 complete control)
row,Structure (SMILES),"Plant response rating, Kochia"
1,FC(F)=C(F)CCOc1c(Br)cccc1Oc1ncc(Cl)cn1 [Compound 38],70

# Tested on: corn (Zea mays)
# Assay: Test A postemergence, corn
# Assay type: in vivo
# Conditions: 31 g ai/ha, postemergence; 0 to 100 scale, 0 is no effect, 100 is complete control; approximately 10 days
# Outline: as §2
row,Structure (SMILES),"Plant response rating, Corn"
1,FC(F)=C(F)CCOc1c(Br)cccc1Oc1ncc(Cl)cn1 [Compound 38],10

# Same assay, conditions: 125 g ai/ha, postemergence; 0 to 100 scale, 0 is no effect, 100 is complete control; approximately 10 days
row,Structure (SMILES),"Plant response rating, Corn"
1,FC(F)=C(F)CCOc1c(Br)cccc1Oc1ncc(Cl)cn1 [Compound 38],20

# Tested on: sedge, umbrella (small-flower umbrella sedge, Cyperus difformis)
# Assay: Test B flooded paddy test, umbrella sedge
# Assay type: in vivo
# Conditions: 250 g ai/ha, Flood; visual rating after 13 to 15 days; scale 0 to 100, 0 is no effect, 100 is complete control
# Outline: as §1
row,Structure (SMILES),"Plant response rating, Sedge, Umbrella"
1,FC(F)=C(F)CCOc1c(Br)cccc1Oc1ncc(Cl)cn1 [Compound 38],100

# Tested on: ducksalad (Heteranthera limosa)
# Assay: Test B flooded paddy test, ducksalad
# Assay type: in vivo
# Conditions: 250 g ai/ha, Flood; visual rating after 13 to 15 days; scale 0 to 100, 0 is no effect, 100 is complete control
# Outline: as §1
row,Structure (SMILES),"Plant response rating, Ducksalad"
1,FC(F)=C(F)CCOc1c(Br)cccc1Oc1ncc(Cl)cn1 [Compound 38],75

# Tested on: ragweed (common ragweed, Ambrosia elatior)
# Assay: Test A postemergence, ragweed
# Assay type: in vivo
# Conditions: 31 g ai/ha, postemergence; 0 to 100 scale, 0 is no effect, 100 is complete control; approximately 10 days
# Outline: as §2
row,Structure (SMILES),"Plant response rating, Ragweed"
1,FC(F)=C(F)CCOc1c(Br)cccc1Oc1ncc(Cl)cn1 [Compound 38],0

# Same assay, conditions: 125 g ai/ha, postemergence; 0 to 100 scale, 0 is no effect, 100 is complete control; approximately 10 days
row,Structure (SMILES),"Plant response rating, Ragweed"
1,FC(F)=C(F)CCOc1c(Br)cccc1Oc1ncc(Cl)cn1 [Compound 38],10

# Tested on: galium (catchweed bedstraw, Galium aparine)
# Assay: Test A postemergence, galium
# Assay type: in vivo
# Conditions: 31 g ai/ha, postemergence; 0 to 100 scale, 0 is no effect, 100 is complete control; approximately 10 days
# Outline: as §2
row,Structure (SMILES),"Plant response rating, Galium"
1,FC(F)=C(F)CCOc1c(Br)cccc1Oc1ncc(Cl)cn1 [Compound 38],10

# Same assay, conditions: 125 g ai/ha, postemergence; 0 to 100 scale, 0 is no effect, 100 is complete control; approximately 10 days
row,Structure (SMILES),"Plant response rating, Galium"
1,FC(F)=C(F)CCOc1c(Br)cccc1Oc1ncc(Cl)cn1 [Compound 38],50

# Tested on: rice (Oryza sativa)
# Assay: Test B flooded paddy test, rice
# Assay type: in vivo
# Conditions: 250 g ai/ha, Flood; visual rating after 13 to 15 days; scale 0 to 100, 0 is no effect, 100 is complete control
# Outline: as §1
row,Structure (SMILES),"Plant response rating, Rice"
1,FC(F)=C(F)CCOc1c(Br)cccc1Oc1ncc(Cl)cn1 [Compound 38],0

# Tested on: kochia (Kochia scoparia)
# Assay: Test A postemergence, kochia
# Assay type: in vivo
# Conditions: 31 g ai/ha, postemergence; 0 to 100 scale, 0 is no effect, 100 is complete control; approximately 10 days
# Outline: as §2
row,Structure (SMILES),"Plant response rating, Kochia"
1,FC(F)=C(F)CCOc1c(Br)cccc1Oc1ncc(Cl)cn1 [Compound 38],20

# Same assay, conditions: 125 g ai/ha, postemergence; 0 to 100 scale, 0 is no effect, 100 is complete control; approximately 10 days
row,Structure (SMILES),"Plant response rating, Kochia"
1,FC(F)=C(F)CCOc1c(Br)cccc1Oc1ncc(Cl)cn1 [Compound 38],70

# Tested on: foxtail, giant (giant foxtail, Setaria faberii)
# Assay: Test A preemergence, giant foxtail
# Assay type: in vivo
# Conditions: Preemergence, 31 g ai/ha; 0 to 100 scale (0 no effect, 100 complete control)
# Outline: as §2
row,Structure (SMILES),"Plant response rating, Foxtail, Giant"
1,FC(F)=C(F)CCOc1c(Br)cccc1Oc1ncc(Cl)cn1 [Compound 38],30

# Same assay, conditions: Preemergence, 125 g ai/ha; 0 to 100 scale (0 no effect, 100 complete control)
row,Structure (SMILES),"Plant response rating, Foxtail, Giant"
1,FC(F)=C(F)CCOc1c(Br)cccc1Oc1ncc(Cl)cn1 [Compound 38],100

# Tested on: pigweed (Amaranthus retroflexus)
# Assay: Test A preemergence, pigweed
# Assay type: in vivo
# Conditions: Preemergence, 31 g ai/ha; 0 to 100 scale (0 no effect, 100 complete control)
# Outline: as §2
row,Structure (SMILES),"Plant response rating, Pigweed"
1,FC(F)=C(F)CCOc1c(Br)cccc1Oc1ncc(Cl)cn1 [Compound 38],0

# Same assay, conditions: Preemergence, 125 g ai/ha; 0 to 100 scale (0 no effect, 100 complete control)
row,Structure (SMILES),"Plant response rating, Pigweed"
1,FC(F)=C(F)CCOc1c(Br)cccc1Oc1ncc(Cl)cn1 [Compound 38],100

# Tested on: barnyardgrass (Echinochloa crus-galli)
# Assay: Test A postemergence, barnyardgrass
# Assay type: in vivo
# Conditions: 31 g ai/ha, postemergence; 0 to 100 scale, 0 is no effect, 100 is complete control; approximately 10 days
# Outline: as §2
row,Structure (SMILES),"Plant response rating, Barnyardgrass"
1,FC(F)=C(F)CCOc1c(Br)cccc1Oc1ncc(Cl)cn1 [Compound 38],10

# Same assay, conditions: 125 g ai/ha, postemergence; 0 to 100 scale, 0 is no effect, 100 is complete control; approximately 10 days
row,Structure (SMILES),"Plant response rating, Barnyardgrass"
1,FC(F)=C(F)CCOc1c(Br)cccc1Oc1ncc(Cl)cn1 [Compound 38],30

# Tested on: wheat (Triticum aestivum)
# Assay: Test A postemergence, wheat
# Assay type: in vivo
# Conditions: 31 g ai/ha, postemergence; 0 to 100 scale, 0 is no effect, 100 is complete control; approximately 10 days
# Outline: as §2
row,Structure (SMILES),"Plant response rating, Wheat"
1,FC(F)=C(F)CCOc1c(Br)cccc1Oc1ncc(Cl)cn1 [Compound 38],0

# Same assay, conditions: 125 g ai/ha, postemergence; 0 to 100 scale, 0 is no effect, 100 is complete control; approximately 10 days
row,Structure (SMILES),"Plant response rating, Wheat"
1,FC(F)=C(F)CCOc1c(Br)cccc1Oc1ncc(Cl)cn1 [Compound 38],0

# From patent US10485235B2, “Aryloxypyrimidinyl ethers as herbicides” (FMC Corporation, priority 2015, dated 2019)
